This note sets out measurements from patent US20240287627A1, “TEMPORALLY MULTIPLEXED IMAGING” (MASSACHUSETTS INSTITUTE OF TECHNOLOGY, priority 2023, published 2024).

What all share (format): cell-based
One assay deals with JNK. The experiment in a line: Kinase translocation reporter imaging, rsGreenF-E-based JNK sensor, in NIH/3T3 cells. The text has this:
(§1) The constructs of JNKKTRrsGreenFast-E (JNKKTR is SEQ ID NO: 5), P38KTRDronpa, ERKKTRrsFastLime (ERKKTR is SEQ ID NO: 6) were built based on the original KTRs constructs JNKKTRClover (addgene plasmid 59151; JNKKTR is SEQ ID NO: 5), P38KTRmCerulean3 (addgene plasmid 59155), ERKKTRClover(addgene plasmid 59150; ERKKTR is SEQ ID NO: 6), all gift of Markus W. Covert (Regot S, et al., Cell, (2014); 157(7):1724-34). The newly developed three KTRs were then used along with PKAKTRClover (addgene plasmid […]; PKAKTR is SEQ ID NO: 7) and H2B-TagBFP to report the activities of all four kinases. H2B-TagBFP was used as a nucleus marker. NIH/3T3 cells were imaged on the same microscope and incubator system as the imaging of cell cycle phases. Cell culture media were changed to imaging media (MEM (Gibo) without phenol red with 1% FBS (Gibo)) prior to imaging. The imaging conditions (including exposure time, excitation, and emission) for KTRs were the same as those for imaging cell cycle phases as described previously. […]
(§2) Quantification of KTRs: Kinase activities reported by KTRs including CDK2 reporter and CDK4/6 reporter were quantified following the methods described previously (Regot S, et al., Cell, (2014); 157(7):1724-34). […]

The next assay relates to cAMP. The experiment in a line: cAMP imaging with Pink Flamindo in NIH/3T3 cells (seven-signal imaging). Particulars: 100 ng/ml PMA added at t=44 min (after forskolin). The text has this: (§3) Simultaneous imaging of seven cell activities within single cells: The genes of the single-color KTRs were cloned into the following plasmid: CAG-JNKKTRrsGreenF-E-P2A-ERK KTRrsFastLime-IRES-PKAKTRClover-P2A-P38KTRDropna (JNKKTR is SEQ ID NO: 5 and PKAKTR is SEQ ID NO: 7). The aforementioned plasmid was then used with plasmid CAG-NIR-GECO2G (Qian Y, et al., PLoS Biol., (2020); 18(11):e3000965), plasmid CMV-Pink Flamindo (Harada K, et al., Sci Rep., (2017); 7(1):7351), and plasmid CMV-BlueCKAR (Mehta S, et al., Nat Cell Biol, (2018); 20(10):1215-25) for imaging 7 signals within individual NIH/3T3 cells. Imaging conditions for blue channel, green channel, and red channel were the same as those used in the imaging of cell cycle phases and CDKs activities. An extra channel (excitation: 637/12 nm at 9 mW/mm^2; emission: 664LP, exposure time: 100 ms) was used for imaging NIR-GECO2G. Images and movies were acquired every 2 min. 50 μM forskolin (Millipore Sigma) and 100 ng/ml Phorbol 12-myristate 13-acetate (PMA) (Millipore Sigma) were used to stimulate cells.

The test system of a further assay is Ca^2+. Put plainly: Ca2+ imaging with NIR-GECO2G in NIH/3T3 cells (seven-signal imaging). Particulars: 100 ng/ml PMA added at t=44 min (after forskolin).
Description: as §3

The subject of the next assay is PKA. Put plainly: Kinase translocation reporter imaging, PKA KTR-Clover, in NIH/3T3 cells.
Description: as §1, §2

A further assay has as its system P38. The experiment in a line: Kinase translocation reporter imaging, Dronpa-based P38 sensor, in NIH/3T3 cells.
Description: as §1, §2

Another assay deals with ERK. The experiment in a line: Kinase translocation reporter imaging, rsFastLime-based ERK sensor, in NIH/3T3 cells.
Description: as §1, §2

The next assay has as its system PKC. Put plainly: PKC imaging with BlueCKAR in NIH/3T3 cells (seven-signal imaging). Particulars: 100 ng/ml PMA added at t=44 min (after forskolin).
Description: as §3

The mark [1] stands for this setting: seven-signal imaging, 100 ng/ml PMA added at t=44 min (after forskolin).
Where [2] appears, read: four-KTR imaging, 20 ng/ml bFGF2 at t=0 min.

Take `CCCCCCCCCCCCCC(=O)O[C@@H]1[C@@H](C)[C@@]2(O)[C@@H](C=C(CO)C[C@]3(O)C(=O)C(C)=C[C@@H]23)[C@@H]2C(C)(C)[C@]12OC(C)=O` [PMA, phorbol 12-myristate 13-acetate]: the JNK response entry with JNK (setting [1]) is “strong responses”. For the same molecule, the cAMP response entry in the assay on cAMP is recorded as “strong responses”. Besides, the “Ca^2+ response” value in the assay with Ca^2+ is “little to no changes”. For the same molecule, in the assay with PKA (setting [1]), the PKA response entry is recorded as “strong responses”. Besides, the P38 response entry in the assay on P38 (setting [1]) was “little to no changes”. Moreover, in the assay on ERK (setting [1]), the ERK response result is “strong responses”. The PKC response result in the assay with PKC is listed as “strong responses”.

B1: bFGF2: mouse basic fibroblast growth factor 2 (protein, UniProt P15655 10-154, looked up)
Fibroblast growth factor 2: PALPEDGGAAFPPGHFKDPKRLYCKNGGFFLRIHPDGRVDGVREKSDPHVKLQLQAEERGVVSIKGVCANRYLAMKEDGRLLASKCVTEECFFFERLESNNYNTYRSRKYSSWYVALKRTGQYKLGSKTGPGQKAILFLPMSAKS
In the case of B1, in the assay on JNK (setting [2]), the “JNK KTR signal after stimulation” value is on record as “Fast onset”. Besides, in the assay on PKA (setting [2]), the “PKA KTR signal after stimulation” value is on record as “Fast onset”. In the assay on P38 (setting [2]), the “P38 KTR signal after stimulation” value was “steadily increased over time”. Also, in the assay on ERK (setting [2]), the “ERK KTR signal after stimulation” value is on record as “steadily increased over time”.
